# Test results published in ChEMBL document CHEMBL1938345, “Design, synthesis and cytotoxic activity of novel spin-labeled rotenone derivatives” (Bioorg Med Chem Lett, 2012).
# Columns and labels:
# Format in all cases: functional, cell-based
# [1] = test system: KB; experiment: Cytotoxicity against human KB cells by SRB assay
# [2] = test system: DU-145; experiment: Cytotoxicity against human DU145 cells by SRB assay
# [3] = test system: A549; experiment: Cytotoxicity against human A549 cells by SRB assay
# [4] = Cytotoxicity against human KBVIN cells by SRB assay
# [5] = Homo sapiens, KB, read-out: IC50
# [6] = Homo sapiens, DU-145, read-out: IC50
# [7] = Homo sapiens, KBVIN, read-out: IC50
smiles,measurement,setting,value
C=C(C)[C@H]1Cc2c(ccc3c2O[C@@H]2COc4cc(OC)c(OC)cc4[C@@H]2C3=O)O1 [ROTENONE],IC50,[1]; [5],0.513 µg/mL
same,IC50,[2]; [6],0.465 µg/mL
same,IC50,"[3]; Homo sapiens, A549, read-out: IC50",0.901 µg/mL
same,IC50,[4]; [7],0.595 µg/mL
C=C(C)[C@H]1Cc2c(ccc3c2O[C@@H]2COc4cc(OC)c(OC)cc4[C@@H]2/C3=N\OC(=O)C2=CC(C)(C)N([O])C2(C)C)O1,IC50,[1]; kb,0.633 µg/mL
same,IC50,[2]; du-145,0.426 µg/mL
same,IC50,[3]; a549,0.738 µg/mL
same,IC50,[4]; kbvin,0.62 µg/mL
C=C(C)[C@H]1Cc2c(ccc3c2O[C@@H]2COc4cc(OC)c(OC)cc4[C@@H]2[C@@H]3OC(=O)C2CC(C)(C)N([O])C2(C)C)O1 (some centres not stated),IC50,[1]; kb,0.443 µg/mL
same,IC50,[2]; du-145,0.277 µg/mL
same,IC50,[3]; a549,0.533 µg/mL
same,IC50,[4]; kbvin,0.241 µg/mL
C=C(C)[C@H]1Cc2c(ccc3c2O[C@@H]2COc4cc(OC)c(OC)cc4[C@@H]2/C3=N\OC(=O)C2CC(C)(C)N([O])C(C)(C)C2)O1,IC50,[1]; kb,0.523 µg/mL
same,IC50,[2]; du-145,0.488 µg/mL
same,IC50,[3]; a549,0.651 µg/mL
same,IC50,[4]; kbvin,0.358 µg/mL
C=C(C)[C@H]1Cc2c(ccc3c2O[C@@H]2COc4cc(OC)c(OC)cc4[C@@H]2[C@@H]3OC(=O)[C@@H](NC(=O)OC2CC(C)(C)N([O])C(C)(C)C2)C(C)CC)O1 (some centres not stated),IC50,[1]; kb,0.516 µg/mL
same,IC50,[2]; du-145,0.396 µg/mL
same,IC50,[3]; a549,0.649 µg/mL
same,IC50,[4]; kbvin,0.399 µg/mL
C=C(C)[C@H]1Cc2c(ccc3c2O[C@@H]2COc4cc(OC)c(OC)cc4[C@@H]2[C@@H]3OC(=O)[C@H](Cc2c[nH]c3ccccc23)NC(=O)OC2CC(C)(C)N([O])C(C)(C)C2)O1,IC50,[1]; kb,0.565 µg/mL
same,IC50,[2]; du-145,0.477 µg/mL
same,IC50,[3]; a549,0.631 µg/mL
same,IC50,[4]; kbvin,0.414 µg/mL
C=C(C)[C@H]1Cc2c(ccc3c2O[C@@H]2COc4cc(OC)c(OC)cc4[C@@H]2[C@@H]3OC(=O)[C@H](C)NC(=O)OC2CC(C)(C)N([O])C(C)(C)C2)O1,IC50,[1]; kb,0.442 µg/mL
same,IC50,[2]; du-145,0.417 µg/mL
same,IC50,[3]; a549,0.65 µg/mL
same,IC50,[4]; kbvin,0.357 µg/mL
C=C(C)[C@H]1Cc2c(ccc3c2O[C@@H]2COc4cc(OC)c(OC)cc4[C@@H]2[C@@H]3OC(=O)C2=CC(C)(C)N([O])C2(C)C)O1,IC50,[1]; kb,0.273 µg/mL
same,IC50,[2]; du-145,0.223 µg/mL
same,IC50,[3]; a549,0.408 µg/mL
same,IC50,[4]; kbvin,0.075 µg/mL
C=C(C)[C@H]1Cc2c(ccc3c2O[C@@H]2COc4cc(OC)c(OC)cc4[C@@H]2[C@@H]3OC(=O)CNC(=O)OC2CC(C)(C)N([O])C(C)(C)C2)O1,IC50,[1]; kb,0.51 µg/mL
same,IC50,[2]; du-145,0.45 µg/mL
same,IC50,[3]; a549,0.624 µg/mL
same,IC50,[4]; kbvin,0.41 µg/mL
C=C(C)[C@H]1Cc2c(ccc3c2O[C@@H]2COc4cc(OC)c(OC)cc4[C@@H]2[C@@H]3OC(=O)[C@H](Cc2ccccc2)NC(=O)OC2CC(C)(C)N([O])C(C)(C)C2)O1,IC50,[1]; kb,0.509 µg/mL
same,IC50,[2]; du-145,0.462 µg/mL
same,IC50,[3]; a549,0.713 µg/mL
same,IC50,[4]; kbvin,0.383 µg/mL
C=C(C)[C@H]1Cc2c(ccc3c2O[C@@H]2COc4cc(OC)c(OC)cc4[C@@H]2[C@@H]3OC(=O)C2CC(C)(C)N([O])C(C)(C)C2)O1,IC50,[1]; kb,0.408 µg/mL
same,IC50,[2]; du-145,0.266 µg/mL
same,IC50,[3]; a549,0.523 µg/mL
same,IC50,[4]; kbvin,0.092 µg/mL
C=C(C)[C@H]1Cc2c(ccc3c2O[C@@H]2COc4cc(OC)c(OC)cc4[C@@H]2/C3=N\OC(=O)C2CC(C)(C)N([O])C2(C)C)O1 (some centres not stated),IC50,[1]; kb,0.56 µg/mL
same,IC50,[2]; du-145,0.322 µg/mL
same,IC50,[3]; a549,0.471 µg/mL
same,IC50,[4]; kbvin,0.298 µg/mL
C=C(C)[C@H]1Cc2c(ccc3c2O[C@@H]2COc4cc(OC)c(OC)cc4[C@@H]2[C@@H]3OC(=O)[C@@H](NC(=O)OC2CC(C)(C)N([O])C(C)(C)C2)C(C)C)O1,IC50,[1]; kb,0.497 µg/mL
same,IC50,[2]; du-145,0.451 µg/mL
same,IC50,[3]; a549,0.615 µg/mL
same,IC50,[4]; kbvin,0.381 µg/mL
CC(=O)O[C@H]1C(=O)[C@@]2(C)[C@H]([C@H](OC(=O)c3ccccc3)[C@]3(O)C[C@H](OC(=O)[C@H](O)[C@@H](NC(=O)c4ccccc4)c4ccccc4)C(C)=C1C3(C)C)[C@]1(OC(C)=O)CO[C@@H]1C[C@@H]2O [PACLITAXEL],IC50,[1]; [5],0.0048 µg/mL
same,IC50,[2]; [6],0.0037 µg/mL
same,IC50,[4]; [7],1.15 µg/mL
C=C(C)[C@H]1Cc2c(ccc3c2O[C@@H]2COc4cc(OC)c(OC)cc4[C@@H]2[C@@H]3OC(=O)C2=CC(C)(C)N([O])C(C)(C)C2)O1,IC50,[1]; kb,0.427 µg/mL
same,IC50,[2]; du-145,0.322 µg/mL
same,IC50,[3]; a549,0.578 µg/mL
same,IC50,[4]; kbvin,0.299 µg/mL
C=C(C)[C@H]1Cc2c(ccc3c2O[C@@H]2COc4cc(OC)c(OC)cc4[C@@H]2[C@@H]3OC(=O)[C@H](CC(C)C)NC(=O)OC2CC(C)(C)N([O])C(C)(C)C2)O1,IC50,[1]; kb,0.483 µg/mL
same,IC50,[2]; du-145,0.443 µg/mL
same,IC50,[3]; a549,0.521 µg/mL
same,IC50,[4]; kbvin,0.355 µg/mL
C=C(C)[C@H]1Cc2c(ccc3c2O[C@@H]2COc4cc(OC)c(OC)cc4[C@@H]2/C3=N\OC(=O)C2=CC(C)(C)N([O])C(C)(C)C2)O1,IC50,[1]; kb,0.575 µg/mL
same,IC50,[2]; du-145,0.358 µg/mL
same,IC50,[3]; a549,0.542 µg/mL
same,IC50,[4]; kbvin,0.162 µg/mL
